Laboratory results from ChEMBL document CHEMBL3120135, “Inhibition of glutamate racemase by substrate-product analogues” (Bioorg Med Chem Lett, 2014).
Blank lines part the entries; values can stand above or below the compound they belong to.

What was measured:
[1] = Inhibition of Fusobacterium nucleatum recombinant N-terminal hexahistidine-tagged glutamate racemase expressed in Escherichia coli BL21 (DE3) using L-glutamate as substrate by circular dichroism based assay
Fusobacterium nucleatum [2] = test: Inhibition of Fusobacterium nucleatum recombinant N-terminal hexahistidine-tagged glutamate racemase expressed in Escherichia coli BL21 (DE3) using L-glutamate as substrate at 50 mM by circular dichroism based assay
[3] = Noncompetitive inhibition of Bacillus subtilis glutamate racemase
[4] = Inhibition of Bacillus subtilis glutamate racemase
Fusobacterium nucleatum [5] = test: Inhibition of Fusobacterium nucleatum recombinant N-terminal hexahistidine-tagged glutamate racemase expressed in Escherichia coli BL21 (DE3) using L-glutamate as substrate at 64 mM by circular dichroism based assay
Fusobacterium nucleatum [6] = test: Inhibition of Fusobacterium nucleatum recombinant N-terminal hexahistidine-tagged glutamate racemase expressed in Escherichia coli BL21 (DE3) using L-glutamate as substrate at 40 mM by circular dichroism based assay
[7] = Partial noncompetitive inhibition of Fusobacterium nucleatum recombinant N-terminal hexahistidine-tagged glutamate racemase expressed in Escherichia coli BL21 (DE3) using L-glutamate as substrate by Michaelis-Menten plot analysis
Fusobacterium nucleatum [8] = test: (§1) Mixed-type inhibition of Fusobacterium nucleatum recombinant N-terminal hexahistidine-tagged glutamate racemase expressed in Escherichia coli BL21 (DE3) using L-glutamate as substrate by Michaelis-Menten plot analysis
[9] = as §1

Compound: O=C(O)CCP(=O)(O)CCC(=O)O
IC50 [1]: 60.4 mM | inhibition (Fusobacterium nucleatum [2]): 40%

Ki [3]: 92 µM | Ki [4]: 2.7 mM
Compound: O=C(O)c1cccc(C(=O)O)n1 [DIPICOLINIC ACID]

Compound: NC(CCP(=O)(O)O)C(=O)O (racemic)
inhibition (Fusobacterium nucleatum [5]): 15%

Compound: O=C1CCP(=O)(O)CC1
IC50 [1]: 47.7 mM

IC50 [1]: 215 mM | inhibition (Fusobacterium nucleatum [6]): 30%
Compound: NC1(C(=O)O)CCS(=O)(=O)CC1

Compound: NC1(C(=O)O)CCP(=O)(O)CC1 (stereo not drawn)
IC50 [1]: 24.1 mM | Ki [7]: 3.1 mM

IC50 [1]: 21.2 mM | alphaKi (Fusobacterium nucleatum [8]): 28 mM
Compound: O=C1CCS(=O)(=O)CC1
Ki [9]: 18.4 mM
